The results in this text go back to paper PMC4767141, “Discovery of Potent, Orally Bioavailable, Small-Molecule Inhibitors of WNT Signaling from a Cell-Based Pathway Screen” (Journal of Medicinal Chemistry, 2015).

The nature of one data set: Clint determination. Type of data set: in vitro ADME. The settings on record: rat, microsomes, pH 7.4, rat microsomes, read-out: Clint (μL/min/mg) Rat.
The next data set can be described thus: Plasma stability. Type of data set: in vitro ADME.
A further data set has as its target T1, TP (h) (TXA2/PGH2) (Homo sapiens, UniProt P21731).
T1 construct: purchased Millipore KinaseProfiler (kinases); Cerep (receptors and ion channels)
Description: CEREP binding panel. The settings on record: antagonist radioligand, read-out: % Inhibition of Control Specific Binding.

Another data set deals with T2, ARG (Homo sapiens, UniProt P42684).
T2 construct: purchased Millipore KinaseProfiler (kinases); Cerep (receptors and ion channels)
Description: Millipore kinase panel. The format is biochemical. The settings on record: ATP at Km, read-out: % Control.

For a further data set, the target named is T3, GSK3BETA (Homo sapiens, UniProt P49841).
T3 construct: purchased Millipore
Description: Millipore kinase panel. The following applies: read-out: % Control. The format is biochemical.

The target in another data set is T4, MAPK2 (Homo sapiens, UniProt P28482).
T4 construct: purchased Millipore KinaseProfiler (kinases); Cerep (receptors and ion channels)
Description: Millipore kinase panel. The format is biochemical. The settings on record: ATP at Km, read-out: % Control.

The target in another data set is T5, MST1 (Homo sapiens, UniProt Q13043).
T5 construct: purchased Millipore KinaseProfiler (kinases); Cerep (receptors and ion channels)
The data set is described as follows: Millipore kinase panel. Type of data set: biochemical. The settings on record: read-out: % Control.

A further data set has as its target CYP450 3A4 (Homo sapiens, UniProt P08684). Description: CYP450 inhibition. The format is in vitro ADME.
For the next data set, the system named is BZD (central). Description: CEREP binding panel. The settings on record: 10 μM, agonist radioligand.
The target in another data set is T6, CK2ALPHA2 (Homo sapiens, UniProt P19784).
T6 construct: purchased Millipore KinaseProfiler (kinases); Cerep (receptors and ion channels)
Description: Millipore kinase panel. The format is biochemical. The settings on record: read-out: % Control.

The target of a further data set is T7, EGFR(L861Q) (Homo sapiens, UniProt P00533, L861Q).
T7 construct: purchased Millipore KinaseProfiler (kinases); Cerep (receptors and ion channels)
Description: Millipore kinase panel. The following applies: read-out: % Control. Type of data set: biochemical.

A further data set deals with T8, EPHA4 (Homo sapiens, UniProt P54764).
T8 construct: purchased Millipore KinaseProfiler (kinases); Cerep (receptors and ion channels)
The data set is described as follows: Millipore kinase panel. Type of data set: biochemical. The following applies: read-out: % Control.

The target in a further data set is T9, FLT3(D835Y) (Homo sapiens, UniProt P36888, D835Y).
T9 construct: purchased Millipore KinaseProfiler (kinases); Cerep (receptors and ion channels)
Description: Millipore kinase panel. Type of data set: biochemical. The settings on record: read-out: % Control.

For a further data set, the target named is T10, NEK11 (Homo sapiens, UniProt Q8NG66).
T10 construct: purchased Millipore KinaseProfiler (kinases); Cerep (receptors and ion channels)
Description: Millipore kinase panel. Type of data set: biochemical. The following applies: read-out: % Control.

For the next data set, the target named is T11, PI3K BETA (Homo sapiens, UniProt P42338).
T11 construct: purchased Millipore KinaseProfiler (kinases); Cerep (receptors and ion channels)
Description: Millipore kinase panel. The format is biochemical. The settings on record: read-out: % Control.

A further data set concerns the target T12, PKBALPHA (Homo sapiens, UniProt P31749).
T12 construct: purchased Millipore KinaseProfiler (kinases); Cerep (receptors and ion channels)
The data set is described as follows: Millipore kinase panel. The format is biochemical. The following applies: read-out: % Control.

In another data set the target is T13, PKCIOTA (Homo sapiens, UniProt P41743).
T13 construct: purchased Millipore KinaseProfiler (kinases); Cerep (receptors and ion channels)
The data set is described as follows: Millipore kinase panel. Type of data set: biochemical. The settings on record: read-out: % Control.

The next data set addresses T14, SAPK2A(T106M) (Homo sapiens, UniProt Q16539, T106M).
T14 construct: purchased Millipore KinaseProfiler (kinases); Cerep (receptors and ion channels)
The data set is described as follows: Millipore kinase panel. Type of data set: biochemical. The following applies: read-out: % Control.

For the next data set, the target named is T15, CK1GAMMA2 (Homo sapiens, UniProt P78368).
T15 construct: purchased Millipore KinaseProfiler (kinases); Cerep (receptors and ion channels)
The data set is described as follows: Millipore kinase panel. The format is biochemical. The following applies: read-out: % Control.

For a further data set, the target named is T16, CK1GAMMA3 (Homo sapiens, UniProt Q9Y6M4).
T16 construct: purchased Millipore KinaseProfiler (kinases); Cerep (receptors and ion channels)
The data set is described as follows: Millipore kinase panel. The format is biochemical. The settings on record: read-out: % Control.

In a further data set the target is T17, CAMKIIDELTA (Homo sapiens, UniProt Q13557).
T17 construct: purchased Millipore KinaseProfiler (kinases); Cerep (receptors and ion channels)
Description: Millipore kinase panel. Type of data set: biochemical. The following applies: read-out: % Control.

Another data set concerns the target T18, CKIT(D816H) (Homo sapiens, UniProt P10721, D816H).
T18 construct: purchased Millipore KinaseProfiler (kinases); Cerep (receptors and ion channels)
Description: Millipore kinase panel. The format is biochemical. The following applies: read-out: % Control.

Another data set addresses T19, CKIT(V560G) (Homo sapiens, UniProt P10721, V560G).
T19 construct: purchased Millipore KinaseProfiler (kinases); Cerep (receptors and ion channels)
The data set is described as follows: Millipore kinase panel. The format is biochemical. The settings on record: read-out: % Control.

The target of another data set is T20, CHK2(R145W) (Homo sapiens, UniProt O96017, R145W).
T20 construct: purchased Millipore KinaseProfiler (kinases); Cerep (receptors and ion channels)
Description: Millipore kinase panel. Type of data set: biochemical. The following applies: read-out: % Control.

The next data set has as its target T21, CHK2(I157T) (Homo sapiens, UniProt O96017, I157T).
T21 construct: purchased Millipore KinaseProfiler (kinases); Cerep (receptors and ion channels)
Description: Millipore kinase panel. Type of data set: biochemical. The following applies: read-out: % Control.

For the next data set, the target named is T22, FGFR2(N549H) (Homo sapiens, UniProt P21802, N549H).
T22 construct: purchased Millipore KinaseProfiler (kinases); Cerep (receptors and ion channels)
Description: Millipore kinase panel. Type of data set: biochemical. The following applies: read-out: % Control.

Another data set addresses T23, SRC(1-530) (Homo sapiens, UniProt P12931).
T23 construct: purchased Millipore KinaseProfiler (kinases); Cerep (receptors and ion channels)
Description: Millipore kinase panel. The following applies: read-out: % Control. The format is biochemical.

The next data set concerns the target T24, SRC(T341M) (Homo sapiens, UniProt P12931, T341M).
T24 construct: purchased Millipore KinaseProfiler (kinases); Cerep (receptors and ion channels)
Description: Millipore kinase panel. Type of data set: biochemical. The settings on record: read-out: % Control.

Another data set has as its target T25, ABL (Q252H) (Homo sapiens, UniProt P00519, Q252H).
T25 construct: purchased Millipore KinaseProfiler (kinases); Cerep (receptors and ion channels)
Description: Millipore kinase panel. The settings on record: read-out: % Control. The format is biochemical.

In another data set the target is T26, BTK(R28H) (Homo sapiens, UniProt Q06187, R28H).
T26 construct: purchased Millipore KinaseProfiler (kinases); Cerep (receptors and ion channels)
Description: Millipore kinase panel. The format is biochemical. The following applies: read-out: % Control.

In a further data set the target is T27, PI3 KINASE (P110B/P85B) (Mus musculus, UniProt Q8BTI9).
T27 construct: purchased Millipore KinaseProfiler (kinases); Cerep (receptors and ion channels)
Description: Millipore kinase panel. Type of data set: biochemical. The settings on record: read-out: % Control.

In the next data set the target is T28, PEK (Homo sapiens, UniProt Q9NZJ5).
T28 construct: purchased Millipore KinaseProfiler (kinases); Cerep (receptors and ion channels)
The data set is described as follows: Millipore kinase panel. Type of data set: biochemical. The settings on record: read-out: % Control.

The target of a further data set is T29, PRKAA2 (Homo sapiens, UniProt P54646).
T29 construct: purchased Millipore KinaseProfiler (kinases); Cerep (receptors and ion channels)
The data set is described as follows: Millipore kinase panel. The following applies: read-out: % Control. Type of data set: biochemical.

For another data set, the target named is CYP450 1A2 (Homo sapiens, UniProt P05177). The data set is described as follows: CYP450 inhibition.
Another data set relates to RKO-F1522 cells. The data set is described as follows: EF1-α promoter firefly luciferase control reporter. The settings on record: Homo sapiens, read-out: IC50, firefly luciferase reporter downstream of the EF1-α promoter. Background: In a reporter assay the amount or activity of a reporter protein is the signal.

The structures appear in SMILES notation. Some results are limits rather than exact numbers.

In general, inhibition refers to the drop in the measured response relative to a control, in per cent. Broadly, the IC50 is the concentration that inhibits the measured activity by half.

T5 sequence (Q13043 whole entry): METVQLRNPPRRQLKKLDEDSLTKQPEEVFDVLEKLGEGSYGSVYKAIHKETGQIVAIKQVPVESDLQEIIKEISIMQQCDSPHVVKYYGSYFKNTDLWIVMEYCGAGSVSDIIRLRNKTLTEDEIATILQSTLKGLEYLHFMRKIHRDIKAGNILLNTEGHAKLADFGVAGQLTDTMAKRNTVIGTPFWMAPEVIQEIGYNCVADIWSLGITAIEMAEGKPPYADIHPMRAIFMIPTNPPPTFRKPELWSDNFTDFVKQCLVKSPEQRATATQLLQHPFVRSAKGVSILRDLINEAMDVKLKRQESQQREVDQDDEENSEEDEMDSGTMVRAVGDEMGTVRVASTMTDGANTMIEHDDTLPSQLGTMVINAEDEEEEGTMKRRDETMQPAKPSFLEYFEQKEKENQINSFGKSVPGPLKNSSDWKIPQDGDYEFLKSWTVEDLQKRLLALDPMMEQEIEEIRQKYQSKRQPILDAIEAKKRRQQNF
Sequence of CYP450 1A2 (P05177 whole entry): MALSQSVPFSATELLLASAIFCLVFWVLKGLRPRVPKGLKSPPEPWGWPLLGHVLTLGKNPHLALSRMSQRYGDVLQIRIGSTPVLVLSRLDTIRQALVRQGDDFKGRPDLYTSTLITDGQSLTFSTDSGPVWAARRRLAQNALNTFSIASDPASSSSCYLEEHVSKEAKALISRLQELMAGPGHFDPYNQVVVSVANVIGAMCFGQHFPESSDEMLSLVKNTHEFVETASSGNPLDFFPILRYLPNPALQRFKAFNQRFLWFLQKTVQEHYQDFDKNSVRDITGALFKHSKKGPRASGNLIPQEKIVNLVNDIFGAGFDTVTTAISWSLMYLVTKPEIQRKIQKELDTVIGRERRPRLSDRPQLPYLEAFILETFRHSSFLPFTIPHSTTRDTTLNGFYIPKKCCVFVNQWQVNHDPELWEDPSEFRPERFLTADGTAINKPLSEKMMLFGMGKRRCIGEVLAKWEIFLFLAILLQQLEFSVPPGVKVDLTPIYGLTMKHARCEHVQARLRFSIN
T7 sequence (P00533 25-1210 L861Q): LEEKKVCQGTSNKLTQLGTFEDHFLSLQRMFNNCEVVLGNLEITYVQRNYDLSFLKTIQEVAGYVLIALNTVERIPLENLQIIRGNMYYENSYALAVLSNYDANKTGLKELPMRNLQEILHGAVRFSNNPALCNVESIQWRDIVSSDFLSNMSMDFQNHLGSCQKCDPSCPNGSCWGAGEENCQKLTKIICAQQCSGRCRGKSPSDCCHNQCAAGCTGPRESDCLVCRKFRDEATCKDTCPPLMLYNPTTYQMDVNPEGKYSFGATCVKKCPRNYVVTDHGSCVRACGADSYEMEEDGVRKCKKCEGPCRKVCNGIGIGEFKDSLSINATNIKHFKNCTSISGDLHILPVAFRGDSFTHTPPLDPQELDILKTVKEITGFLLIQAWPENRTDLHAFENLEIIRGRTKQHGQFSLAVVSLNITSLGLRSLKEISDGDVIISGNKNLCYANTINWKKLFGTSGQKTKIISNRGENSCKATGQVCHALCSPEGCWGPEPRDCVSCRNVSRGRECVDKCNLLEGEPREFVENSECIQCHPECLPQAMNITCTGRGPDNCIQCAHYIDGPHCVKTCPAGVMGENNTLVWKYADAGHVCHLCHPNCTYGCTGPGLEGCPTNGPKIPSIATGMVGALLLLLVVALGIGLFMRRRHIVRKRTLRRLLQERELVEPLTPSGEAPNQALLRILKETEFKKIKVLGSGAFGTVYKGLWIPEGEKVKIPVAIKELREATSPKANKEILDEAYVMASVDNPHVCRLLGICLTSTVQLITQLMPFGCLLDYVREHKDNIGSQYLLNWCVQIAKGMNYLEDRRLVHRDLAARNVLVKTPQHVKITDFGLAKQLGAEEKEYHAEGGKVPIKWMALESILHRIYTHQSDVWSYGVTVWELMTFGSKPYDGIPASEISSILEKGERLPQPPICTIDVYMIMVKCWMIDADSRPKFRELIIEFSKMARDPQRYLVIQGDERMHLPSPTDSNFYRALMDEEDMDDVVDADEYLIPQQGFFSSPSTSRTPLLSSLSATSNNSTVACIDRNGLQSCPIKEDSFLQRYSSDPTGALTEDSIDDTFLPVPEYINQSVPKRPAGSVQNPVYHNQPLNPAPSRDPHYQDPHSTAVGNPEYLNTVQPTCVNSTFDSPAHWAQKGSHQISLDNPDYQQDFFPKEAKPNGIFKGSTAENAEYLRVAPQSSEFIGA
T13 sequence (P41743 whole entry): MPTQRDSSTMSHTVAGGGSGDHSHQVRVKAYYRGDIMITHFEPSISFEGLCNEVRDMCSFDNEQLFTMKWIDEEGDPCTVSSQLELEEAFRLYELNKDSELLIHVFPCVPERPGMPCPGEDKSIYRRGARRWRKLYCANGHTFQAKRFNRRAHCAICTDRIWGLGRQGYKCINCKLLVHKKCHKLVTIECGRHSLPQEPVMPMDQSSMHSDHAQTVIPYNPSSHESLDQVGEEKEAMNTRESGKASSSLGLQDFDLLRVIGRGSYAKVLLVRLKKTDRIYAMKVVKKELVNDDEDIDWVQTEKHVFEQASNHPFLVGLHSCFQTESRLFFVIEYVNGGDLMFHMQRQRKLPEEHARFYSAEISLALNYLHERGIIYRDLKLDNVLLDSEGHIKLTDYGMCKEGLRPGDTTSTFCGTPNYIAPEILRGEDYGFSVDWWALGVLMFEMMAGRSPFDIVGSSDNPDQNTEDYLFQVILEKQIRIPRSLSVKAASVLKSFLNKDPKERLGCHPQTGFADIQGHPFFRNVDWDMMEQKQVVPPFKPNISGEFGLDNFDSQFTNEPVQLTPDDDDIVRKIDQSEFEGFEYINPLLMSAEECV
T28 sequence (Q9NZJ5 30-1116): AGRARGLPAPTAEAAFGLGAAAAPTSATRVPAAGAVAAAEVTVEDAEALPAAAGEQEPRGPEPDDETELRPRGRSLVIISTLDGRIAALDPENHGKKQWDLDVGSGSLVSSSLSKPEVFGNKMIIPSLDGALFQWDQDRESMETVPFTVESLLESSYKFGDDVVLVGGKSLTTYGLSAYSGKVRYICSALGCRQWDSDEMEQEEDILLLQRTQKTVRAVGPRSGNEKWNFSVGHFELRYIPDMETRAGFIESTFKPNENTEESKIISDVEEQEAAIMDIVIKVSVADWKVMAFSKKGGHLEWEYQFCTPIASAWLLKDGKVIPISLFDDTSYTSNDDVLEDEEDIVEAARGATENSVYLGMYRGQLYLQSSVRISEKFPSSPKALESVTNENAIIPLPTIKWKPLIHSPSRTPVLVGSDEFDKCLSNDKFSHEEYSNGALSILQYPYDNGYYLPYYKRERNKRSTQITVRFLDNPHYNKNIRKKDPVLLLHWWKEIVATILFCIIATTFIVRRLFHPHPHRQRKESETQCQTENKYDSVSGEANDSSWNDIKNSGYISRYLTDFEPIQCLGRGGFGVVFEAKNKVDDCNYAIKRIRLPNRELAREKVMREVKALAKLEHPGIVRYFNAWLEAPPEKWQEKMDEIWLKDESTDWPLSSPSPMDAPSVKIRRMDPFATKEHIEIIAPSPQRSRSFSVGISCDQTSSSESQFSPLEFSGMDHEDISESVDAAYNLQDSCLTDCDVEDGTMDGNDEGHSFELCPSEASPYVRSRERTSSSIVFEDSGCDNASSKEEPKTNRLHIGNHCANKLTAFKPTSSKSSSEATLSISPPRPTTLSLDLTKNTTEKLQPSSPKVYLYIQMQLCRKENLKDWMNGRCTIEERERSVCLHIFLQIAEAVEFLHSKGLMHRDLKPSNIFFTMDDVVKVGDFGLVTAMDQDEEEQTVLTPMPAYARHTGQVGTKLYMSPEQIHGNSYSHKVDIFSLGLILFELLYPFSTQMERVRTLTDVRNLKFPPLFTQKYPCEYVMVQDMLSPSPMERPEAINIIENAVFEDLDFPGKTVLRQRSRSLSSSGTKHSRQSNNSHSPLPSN
Sequence of CYP450 3A4 (P08684 whole entry): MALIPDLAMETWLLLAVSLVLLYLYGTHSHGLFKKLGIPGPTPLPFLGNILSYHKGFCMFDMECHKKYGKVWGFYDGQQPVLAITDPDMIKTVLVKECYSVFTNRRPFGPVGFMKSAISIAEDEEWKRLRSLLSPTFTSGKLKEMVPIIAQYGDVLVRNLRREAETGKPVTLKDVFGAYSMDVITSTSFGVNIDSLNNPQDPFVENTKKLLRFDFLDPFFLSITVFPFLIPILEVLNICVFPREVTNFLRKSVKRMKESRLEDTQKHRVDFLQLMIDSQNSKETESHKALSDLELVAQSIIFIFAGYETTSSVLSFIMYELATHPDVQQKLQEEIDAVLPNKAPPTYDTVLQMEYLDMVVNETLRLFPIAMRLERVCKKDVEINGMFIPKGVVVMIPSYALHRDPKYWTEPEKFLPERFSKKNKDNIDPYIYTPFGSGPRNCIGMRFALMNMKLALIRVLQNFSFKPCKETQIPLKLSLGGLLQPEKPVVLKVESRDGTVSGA
T26 sequence (Q06187 whole entry R28H): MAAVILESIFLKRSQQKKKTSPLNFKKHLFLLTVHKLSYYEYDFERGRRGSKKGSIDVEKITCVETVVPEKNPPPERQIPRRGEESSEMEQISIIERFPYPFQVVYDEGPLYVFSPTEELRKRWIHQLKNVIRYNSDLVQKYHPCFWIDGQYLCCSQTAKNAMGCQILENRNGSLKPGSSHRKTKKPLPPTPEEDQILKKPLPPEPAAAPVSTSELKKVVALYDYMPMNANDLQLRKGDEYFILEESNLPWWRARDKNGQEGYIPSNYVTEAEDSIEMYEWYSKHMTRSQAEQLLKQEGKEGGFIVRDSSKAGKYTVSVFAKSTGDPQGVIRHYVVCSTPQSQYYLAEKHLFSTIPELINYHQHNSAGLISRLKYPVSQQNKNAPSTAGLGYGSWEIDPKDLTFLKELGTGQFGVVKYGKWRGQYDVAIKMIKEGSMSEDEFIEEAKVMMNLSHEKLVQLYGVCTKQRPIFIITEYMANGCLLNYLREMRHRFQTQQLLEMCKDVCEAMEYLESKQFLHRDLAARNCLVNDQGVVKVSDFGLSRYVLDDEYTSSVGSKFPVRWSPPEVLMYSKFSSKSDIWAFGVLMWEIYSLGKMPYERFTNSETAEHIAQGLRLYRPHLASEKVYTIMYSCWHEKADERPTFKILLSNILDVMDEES

As for `O=C1NCCC12CCN(c1c(Cl)cncc1-c1ccc(N3CCOCC3)cc1)CC2` [Compound 44, 8-(3-Chloro-5-(4-morpholin-4-ylphenyl)pyridin-4-yl)-2,8-diazaspiro[4.5]decan-1-one], the microsomal CLint at 1 μM in “Clint determination” was found to be 41 µL/min/mg. Besides, the plasma instability result in “Plasma stability” is recorded as “no plasma instability was observed”. At TP (h) (TXA2/PGH2), the inhibition at 10 µM was determined as 14%. For the same compound, the remaining activity at 1 µM at ARG is -12%; at GSK3BETA it was -25%; at MAPK2, 10%; on MST1, 14%.

As to `Cn1cc(-c2ccc(-c3cncc(Cl)c3N3CCC4(CCNC4=O)CC3)cc2)cn1` [Compound 74, 8-(3-Chloro-5-(4-(1-methyl-1H-pyrazol-4-yl)phenyl)pyridin-4-yl)-2,8-diazaspiro[4.5]decan-1-one], the results for the IC50 at CYP450 3A4, against CYP450 1A2 and in the data set with RKO-F1522 cells were 11.4 µM, over 20 µM and over 10 µM, respectively. Further, the “% Inhibition of Control Specific Binding” value in the data set on BZD (central) is 18%. In addition, the remaining activity at 1 µM is -1% on CK2ALPHA2; 0% on EGFR(L861Q); -26% at EPHA4; -11% on FLT3(D835Y); 7% at NEK11; 0% at PI3K BETA. Besides, the remaining activity at 1 µM at PKBALPHA is 2%; on PKCIOTA, -25%; on SAPK2A(T106M), -8%; on CK1GAMMA2, 10%; on CK1GAMMA3 it was 1%; at CAMKIIDELTA, 4%. Further, the remaining activity at 1 µM at CKIT(D816H) was -7%; at CKIT(V560G), -5%; at CHK2(R145W), 3%; at CHK2(I157T), 2%; at FGFR2(N549H) it was 1%; at SRC(1-530), -8%. The remaining activity at 1 µM is -6% on SRC(T341M); -1% on ABL (Q252H); -4% at BTK(R28H); -1% at PI3 KINASE (P110B/P85B); 8% at PEK; 2% on PRKAA2.
